≈ marks a conversion by molar mass, not a printed value. Like-named read-outs stand apart in the source and are kept apart here. Values belong to the compound of their own block, whether it stands above or below them.
Columns and labels:
VZV TK+ YS = assay: VZV plaque reduction in HEL cells, TK+ strain YS; type: cell-based, Varicella Zoster virus; details: 5 days
Description: (§1) VZV-drug susceptibility assays were performed on confluent HEL cells in 96-well microtiter plates. Monolayers were infected with 20 PFU of cell-associated virus per well. For each assay, virus controls (infected-untreated cells) were included. After a 2-hour incubation period, the virus inoculum was removed and the media replaced by the different dilutions (in duplicate) of the tested molecules. Serial dilutions of test compounds were incubated with the infected monolayers for 5 days. After the 5-day incubation period, the cells were fixed and stained with Giemsa, and the level of virus-induced cytopathic effect was determined by counting the number of plaques for each dilution.

Water-solubility by HPLC = type: physicochemical; details: deionised water, room temperature; for solubility: thermodynamic from solid
Description: HPLC was carried out on a Waters 484 System using Novapack C18 reverse phase column. Flow rate: 1 mL/min. Detection: UV 254 nm. […] The samples were centrifuged at 14.000 rpm in an Eppendorf micro-centrifuge for 1.5 min at room temperature. An aliquot of the clear supernatant was removed and diluted to a concentration within the range of a five-point standard curve. Water-solubility was calculated from each peak area of the above solution by HPLC compared with the sample dissolved in acetonitrile, the concentration of which is already known.

[1] = Oral bioavailability in mice: Compound 1 in plasma after single oral gavage; type: in vivo; details: for Compound 1 in plasma (area under the curve (HPLC)): dose equivalent to 25 mg/kg of Compound 1, relative peak area
Description: The results of this study are shown in Table 1 below and in FIG. 1 of the accompanying drawings.

VZV TK+ OKA = assay: VZV plaque reduction in HEL cells, TK+ strain OKA; type: cell-based, Varicella Zoster virus
Description: as §1

[2] = Conversion in bovine serum (10%); type: in vitro ADME; details: Bovine serum 10% in PBS, 37° C.
Description: (§2) A variety of test compounds have been evaluated for their substrate activity against purified CD26, human serum (HS), and bovine serum (BS) in Eppendorf tubes. The 400 μL reaction mixture contained 50 μM of test compound in PBS (containing 0.1% DMSO). […] At different time points, 100 μL was withdrawn from the reaction mixture, added to 200 μL methanol, and put on ice for ˜10 min. Then, the mixture was centrifuged at 13,000 rpm for 5 min at 4° C. and 250 μL of supernatant was analyzed by HPLC on a reverse phase RP-8 column, using following gradients: […]
(§3) Gradient A (Buffer A: 50 mM NaH2PO4+5 mM heptane-sulfonic acid pH 3.2; buffer B: acetonitrile): 2 min 98% A+2% B; 6 min linear gradient to 80% A+20% B; 2 min linear gradient to 75% A+25% B; 2 min linear gradient to 65% A+35% B; 18 min linear gradient to 50% A+50% B; 5 min 50% A+50% B; 5 min linear gradient to 98% A+2% B; 5 min equilibration at 98% A+2% B.
(§4) Gradient B: 2 min 98% A+2% B; 6 min linear gradient to 80% A+20% B; 2 min linear gradient to 75% A+25% B; 2 min linear gradient to 65% A+35% B; 8 min linear gradient to 50% A+50% B; 10 min 50% A+50% B; 10 min linear gradient to 20% A+80% B; 5 min 20% A+80% B; 15 min linear gradient to 98% A+2% B; 5 min 98% A+2% B.

HEL cells = assay: in vitro; type: cell-based
[3] = Conversion in human serum (10%); type: in vitro ADME; details: Human serum 10% in PBS, 37° C.
Description: as §2, §3, §4

purified CD26 = purified CD26 (Homo sapiens, UniProt P27487); assay: Conversion (substrate activity) by purified CD26; type: biochemical; details: purified CD26 (1.5 mU in PBS), 37° C.
Description: A variety of test compounds have been evaluated for their substrate activity against purified CD26, human serum (HS), and bovine serum (BS) in Eppendorf tubes. The 400 μL reaction mixture contained 50 μM of test compound in PBS (containing 0.1% DMSO). The reaction was started by the addition of purified CD26 (1.5 mU) or 20% of HS (in PBS) or BS (in PBS) at 37° C. At different time points, 100 μL was withdrawn from the reaction mixture, added to 200 μL methanol, and put on ice for ˜10 min. Then, the mixture was centrifuged at 13,000 rpm for 5 min at 4° C. and 250 μL of supernatant was analyzed by HPLC on a reverse phase RP-8 column, using following gradients: […]
as §3, §4

VZV = assay: Anti-VZV activity in VZV-infected HEL cell cultures (general statements); type: cell-based, Varicella Zoster virus; details: HEL cells
Description: The objective of this study was to compare the antiviral activity of Compounds 1, 3, 5, 7 and 9 in HEL cells inoculated with VZV strains. Antiviral activity was assessed as the ability of Compounds 1, 3, 5, 7 and 9 to reduce viral plaque formation after incubation periods of 5 days as compared to untreated control cultures.
as §1

VZV TK− 07/1 = assay: VZV plaque reduction in HEL cells, TK- strain 07/1; type: cell-based, Varicella Zoster virus
Description: as §1

in vitro = type: cell-based; details: human
[4] = overnight, means of three determinations
[5] = Human alphaherpesvirus 3, HEL, 120 h, Table 3b, plaque formation
[6] = Human alphaherpesvirus 3, HEL, 120 h, read-out: EC50 VZV TK+ OKA, Table 3b, plaque formation, 5 days
[7] = Human alphaherpesvirus 3, HEL, 120 h, read-out: EC50 VZV TK− 07/1, Table 3b, plaque formation, 5 days

purified CD26, sequence (P27487 whole entry, species assumed): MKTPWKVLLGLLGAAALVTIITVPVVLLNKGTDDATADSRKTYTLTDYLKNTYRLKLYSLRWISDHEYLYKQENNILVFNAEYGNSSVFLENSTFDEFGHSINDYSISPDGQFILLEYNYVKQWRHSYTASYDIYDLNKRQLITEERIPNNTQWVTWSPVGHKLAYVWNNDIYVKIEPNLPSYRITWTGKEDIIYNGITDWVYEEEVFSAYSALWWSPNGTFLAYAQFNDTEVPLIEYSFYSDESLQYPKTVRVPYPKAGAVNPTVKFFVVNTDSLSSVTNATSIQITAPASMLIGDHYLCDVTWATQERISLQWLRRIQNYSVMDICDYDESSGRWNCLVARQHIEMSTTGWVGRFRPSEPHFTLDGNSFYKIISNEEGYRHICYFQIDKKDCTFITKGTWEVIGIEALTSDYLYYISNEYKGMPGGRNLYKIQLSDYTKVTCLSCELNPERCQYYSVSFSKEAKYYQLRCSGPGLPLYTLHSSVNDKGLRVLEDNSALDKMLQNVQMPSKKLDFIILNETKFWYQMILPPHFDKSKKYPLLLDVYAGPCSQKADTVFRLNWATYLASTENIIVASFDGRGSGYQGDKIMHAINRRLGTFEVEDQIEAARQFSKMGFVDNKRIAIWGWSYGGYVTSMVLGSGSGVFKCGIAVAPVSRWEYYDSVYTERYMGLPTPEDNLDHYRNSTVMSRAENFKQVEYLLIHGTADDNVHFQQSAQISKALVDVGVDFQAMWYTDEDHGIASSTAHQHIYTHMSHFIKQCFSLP

Structure (SMILES): CCCCCc1ccc(-c2cc3cn([C@H]4C[C@H](O)[C@@H](COC(=O)[C@@H](NC(=O)[C@@H]5CCCN5C(=O)[C@@H](N)C(C)C)C(C)C)O4)c(=O)nc3o2)cc1 [Compound 7]
EC50 (VZV TK+ YS; Table 3, plaque formation): 0.01 µM
water-solubility (Water-solubility by HPLC): 1270 µg/mL
water-solubility relative to Compound 1 (Water-solubility by HPLC): more than 57 fold
Solubility in water (Water-solubility by HPLC; [4]): 1270 ± 50 µg/mL (≈ 1830 µM)
Compound 1 in plasma (area under the curve (HPLC)) ([1]; 15 min after oral gavage): 32
Compound 1 in plasma (area under the curve (HPLC)) ([1]; 30 min after oral gavage): 52
Compound 1 in plasma (area under the curve (HPLC)) ([1]; 45 min after oral gavage): 87
Compound 1 in plasma (area under the curve (HPLC)) ([1]; 60 min after oral gavage): 44
Compound 1 in plasma (area under the curve (HPLC)) ([1]; 120 min after oral gavage): 14
Compound 1 in plasma (area under the curve (HPLC)) ([1]; 180 min after oral gavage): 6.2
increase of the oral bioavailability of Compound 1 (as estimated by the AUC values) ([1]; oral gavage, versus dosing Compound 1): approximately 12 fold
EC50 (VZV TK+ OKA; Table 3, plaque formation, 5 days, read-out: EC50 VZV TK+ OKA): 0.012 µM
Formation of hydrolysis products (%): Compound 1 ([2]; 0 hr): 0%
Formation of hydrolysis products (%): Compound 5 ([2]; 0 hr): 0%
Formation of hydrolysis products (%): Compound 7 ([2]; 0 hr): 100%
Formation of hydrolysis products (%): Compound 1 ([2]; 1 hr): 20.3%
Formation of hydrolysis products (%): Compound 5 ([2]; 1 hr): 19.9%
Formation of hydrolysis products (%): Compound 7 ([2]; 1 hr): 59.8%
Formation of hydrolysis products (%): Compound 1 ([2]; 4 hr): 44.8%
Formation of hydrolysis products (%): Compound 5 ([2]; 4 hr): 34.7%
Formation of hydrolysis products (%): Compound 7 ([2]; 4 hr): 20.4%
Formation of hydrolysis products (%): Compound 1 ([2]; 20 hr): 74.4%
Formation of hydrolysis products (%): Compound 5 ([2]; 20 hr): 21%
Formation of hydrolysis products (%): Compound 7 ([2]; 20 hr): 3.3%
CC50 (HEL cells): > 0.5 µM
MCC (HEL cells): >1 µM
cytotoxic or cytostatic (in words) (HEL cells): Neither of them is cytotoxic or cytostatic
Formation of hydrolysis products (%): Compound 1 ([3]; 0 hr): 0%
Formation of hydrolysis products (%): Compound 5 ([3]; 0 hr): 0%
Formation of hydrolysis products (%): Compound 7 ([3]; 0 hr): 100%
Formation of hydrolysis products (%): Compound 1 ([3]; 1 hr): 57.6%
Formation of hydrolysis products (%): Compound 5 ([3]; 1 hr): 11.4%
Formation of hydrolysis products (%): Compound 7 ([3]; 1 hr): 31%
Formation of hydrolysis products (%): Compound 1 ([3]; 4 hr): 73.4%
Formation of hydrolysis products (%): Compound 5 ([3]; 4 hr): 21.5%
Formation of hydrolysis products (%): Compound 7 ([3]; 4 hr): 5.0%
Formation of hydrolysis products (%): Compound 1 ([3]; 20 hr): 88.5%
Formation of hydrolysis products (%): Compound 5 ([3]; 20 hr): 9.7%
Formation of hydrolysis products (%): Compound 7 ([3]; 20 hr): 1.8%
Formation of hydrolysis products (%): Compound 1 (purified CD26; 0 hr): 0%
Formation of hydrolysis products (%): Compound 5 (purified CD26; 0 hr): 0%
Formation of hydrolysis products (%): Compound 7 (purified CD26; 0 hr): 100%
Formation of hydrolysis products (%): Compound 1 (purified CD26; 2 hr): 49.4%
Formation of hydrolysis products (%): Compound 5 (purified CD26; 2 hr): 50.6%
Formation of hydrolysis products (%): Compound 7 (purified CD26; 2 hr): 0%
Formation of hydrolysis products (%): Compound 1 (purified CD26; 6 hr): 62.9%
Formation of hydrolysis products (%): Compound 5 (purified CD26; 6 hr): 37.1%
Formation of hydrolysis products (%): Compound 7 (purified CD26; 6 hr): 0%
Formation of hydrolysis products (%): Compound 1 (purified CD26; 20 hr): 75.5%
Formation of hydrolysis products (%): Compound 5 (purified CD26; 20 hr): 24.5%
Formation of hydrolysis products (%): Compound 7 (purified CD26; 20 hr): 0%
antiviral activity in VZV-infected HEL cell cultures (in words) (VZV): found to be active
antiviral activity against VZV/TK− (in words) (VZV TK− 07/1): lose antiviral activity
EC50 (VZV TK− 07/1; Table 3, plaque formation, 5 days, read-out: EC50 VZV TK− 07/1): > 1 µM

Structure (SMILES): CCCCCc1ccc(-c2cc3cn(C4CC(OC(=O)C(NC(=O)C5CCCN5C(=O)C(N)C(C)C)C(C)C)C(CO)O4)c(=O)nc3o2)cc1 [Compound 9, 3-[2′-Deoxy-3′-O-(valyl-prolyl-valyl)-β-D-ribofuranosyl]-6-(p-pentylphenyl)-2,3-dihydrofuro[2,3-d]pyrimidin-2-one]
EC50 (VZV TK+ YS; [5]): 0.016 µM
EC50 (VZV TK+ OKA; [6]): 0.017 µM
cytotoxic or cytostatic (in words) (HEL cells): Neither of them is cytotoxic or cytostatic
MCC (HEL cells; human): 20 µM
CC50 (in vitro): > 5 µM
antiviral activity in VZV-infected HEL cell cultures (in words) (VZV): found to be active
antiviral activity against VZV/TK− (in words) (VZV TK− 07/1): lose antiviral activity
EC50 (VZV TK− 07/1; [7]): > 5 µM

Solubility in water (Water-solubility by HPLC; [4]): 22 ± 7 µg/mL (≈ 55.2 µM)
solubility (Water-solubility by HPLC; read-out: water-solubility): 22 µg/mL (≈ 55.2 µM)
Structure (SMILES): CCCCCc1ccc(-c2cc3cn([C@H]4CC(O)[C@@H](CO)O4)c(=O)nc3o2)cc1 (stereo partly drawn) [Compound 1, reference compound]

Structure (SMILES): CCCCCc1ccc(-c2cc3cn([C@H]4CC(O)[C@@H](COC(=O)C(N)C(C)C)O4)c(=O)nc3o2)cc1 (stereo partly drawn) [Compound 5, reference compound]
EC50 (VZV TK+ YS; Human alphaherpesvirus 3, HEL, 120 h, Table 3, plaque formation): 0.03 µM
solubility (Water-solubility by HPLC; overnight, means of three determinations, read-out: Solubility in water): 211 ± 44 µg/mL (≈ 424 µM)
EC50 (VZV TK+ OKA; Human alphaherpesvirus 3, HEL, 120 h, read-out: EC50 VZV TK+ OKA, Table 3, plaque formation, 5 days): 0.014 µM
cytotoxic or cytostatic (in words) (HEL cells): Neither of them is cytotoxic or cytostatic
MCC (HEL cells; human): >1 µM
CC50 (in vitro): > 0.5 µM
antiviral activity in VZV-infected HEL cell cultures (in words) (VZV): active
antiviral activity against VZV/TK− (in words) (VZV TK− 07/1): lose antiviral activity
EC50 (VZV TK− 07/1; Human alphaherpesvirus 3, HEL, 120 h, read-out: EC50 VZV TK− 07/1, Table 3, plaque formation, 5 days): > 1 µM

Structure (SMILES): CCCCCc1ccc(-c2cc3cn([C@H]4CC(OC(=O)C(N)C(C)C)[C@@H](CO)O4)c(=O)nc3o2)cc1 (stereo partly drawn) [Compound 3, 3-[2′-Deoxy-3′-O-valyl-β-D-ribofuranosyl]-6-(p-pentylphenyl)-2,3-dihydrofuro[2,3-d]pyrimidin-2-one, reference compound]
EC50 (VZV TK+ YS; [5]): 0.004 µM
EC50 (VZV TK+ OKA; [6]): 0.007 µM
cytotoxic or cytostatic (in words) (HEL cells): Neither of them is cytotoxic or cytostatic
MCC (HEL cells; human): 20 µM
CC50 (in vitro): > 5 µM
antiviral activity in VZV-infected HEL cell cultures (in words) (VZV): active
antiviral activity against VZV/TK− (in words) (VZV TK− 07/1): lose antiviral activity
EC50 (VZV TK− 07/1; [7]): > 5 µM

From patent publication US8912163B2, “Compositions for the treatment or prophylaxis of viral infections” (Katholieke Universiteit Leuven, priority 2007, dated 2014)
